We go through 88 compounds from a melting point compilation (Tetko et al.; mined from patent text by program, amines drawn as free bases though some values may be those of a salt).

Compound `CCCCn1c(=O)c2c(N3CCN(C)CC3)cc(Cl)cc2n(Cc2ccccc2)c1=O` displayed a melting point of 121 to 123 °C.
On to `O=C(O)CCCCCCCCCCCCCCCBr`, for which the melting point fell in the range of 67 to 69 °C.
To `Cc1ccccc1-c1c(NC(=O)Nc2ccc(F)cc2F)c(=O)oc2c(F)cc(F)cc12` belongs 220 to 221 °C; to `OCc1cnoc1-c1ccc(F)c(Cl)c1`, 106 to 107 °C.
In the case of `CSc1cc(C)cc(C)c1C=NO`, the melting point lay within 115 to 117 °C.
The result for `Cc1ccc(CCCO)c(NCc2ccc3nc(NCCCN4CCOCC4)n(Cc4cccc5cccnc45)c3c2)c1` reads 165 °C.
As to `COc1ccccc1-n1c(=O)[nH]c2c(C(N)=O)nc(Nc3ccc(Cn4ccnc4)cc3)nc21`, the melting point was 165 to 170 °C.
For `Cc1cccc(C2=CCN(c3ccc(F)nn3)CC2)c1`, the melting point came out at 105 °C.
The compound `CC1(C)C(=O)N(c2ccc(C#N)c(C(F)(F)F)c2)C(=O)N1CCCC(=O)O` returned a melting point of 179 to 180 °C.
As for `O=C(c1ccc(F)cc1)C1CCN(CCn2c(=O)[nH]c3ncccc3c2=O)CC1`, the melting point is 60 °C.
To `COc1cc(C(F)(F)F)nn1-c1ccc(NC(=O)c2ccncc2F)cc1` belongs 160 to 161 °C.
The result for `CC(Sc1ccccc1)C1C=CCC1C(N)=O` (stereo not drawn) reads 109 °C.
For `CC(CCCC(O)(C(F)(F)F)C(F)(F)F)C1CCC2C3C=CC4=CC(=O)C=CC4(C)C3CCC12C` (stereo not drawn), the melting point lay within 166 to 168 °C.
To `CSc1nc(Cc2ccccc2N)n[nH]1` belongs 99 to 102 °C.
To `O=C(O)COc1ccc(C(=O)c2ccoc2)c2ccccc12` belongs 177 °C; to `CCSc1nc(N2CCNCC2)nc2cccnc12`, 98 to 101 °C; to `CC(=O)c1ccc(OCCCN2CCC(c3noc4cc(F)ccc34)CC2)c(N(C)C)c1`, 94 to 96 °C.
The result for `CC(=O)OCCN(CCOC(C)=O)c1ccc(C=CC=Cc2ccc([N+](=O)[O-])cc2)cc1` reads 195 to 198 °C.
`Fc1ccc(-c2ccco2)cc1` returned a melting point of 84 to 86 °C.
Regarding `CCCCC(C)(Cc1ccc(OCCNC(=O)c2ccc(-c3ccccn3)cc2)cc1)C(=O)O` (stereo not drawn), the melting point was in the range of 106 to 108 °C.
To `O=C(O)Cc1ccc(SCc2ccccc2C(=O)O)cc1` belongs 169 °C; to `FC(F)(F)c1cccc(C(c2ccc3ncccc3c2Cl)n2cncn2)c1` (stereo not drawn), 144 °C; to `Cc1cc(-c2noc(C)c2-c2ccc(S(C)(=O)=O)c(F)c2)ccc1-c1cscn1`, 99.5 °C.
Consider `CC(=O)Cc1ccc(CC2SC(=N)NC2=O)cc1` (stereo not drawn), for which the melting point is 196 to 198 °C.
Regarding `CCCCNC(=O)OC1c2cc(Cl)ccc2C(=O)N1c1ccc2ccc(Cl)nc2n1` (stereo not drawn), the melting point lay within 228 to 230 °C.
In the case of `Cc1cncn1CC#CCN1CCCC1=O`, the melting point lay in the range of 194 to 197 °C.
Take `Cc1cc(-n2ccnc2)c2cccc(OCc3c(Cl)ccc(S(=O)(=O)N4CCC[C@H]4C(=O)NCC4CCNCC4)c3Cl)c2n1`: the melting point was 150 °C.
The result for `c1ccc2c(c1)nc(N1CCOCC1)c1c(-c3noc(C4CC4)n3)ncn12` reads 169 to 173 °C.
To `ON=Cc1ccc2c(c1)Sc1ccccc1C=C2` belongs 206 to 207 °C.
`O=C(NC(=S)NC1CCN(CCc2c[nH]c3ccccc23)CC1)c1ccccc1` returned a melting point of 212 to 215 °C.
`CCN(CC)C(=O)c1ccoc1-c1ccc(C(F)(F)F)cc1` yielded a melting point of 45 to 48 °C.
The result for `COc1nc(C)cnc1N(C(=O)OCC(C)C)S(=O)(=O)c1cccnc1-c1ccc(I)cc1` reads 156 to 158 °C; that for `CC(=O)NCc1ccc(CN2CCN(c3ccc(F)cc3F)CC2)cc1`, 94 to 95 °C; that for `Cn1nc(Cl)c(C(=O)Cc2ccccc2)c1Cl`, 94 to 96 °C.
The result for `Cc1c(F)c(F)c(F)c(F)c1C(=O)O` reads 80 to 82 °C.
To `CCCN(CCC)C1Cc2cc3c(=O)[nH]n(Cc4ccccc4)c(=O)c3cc2C1` (stereo not drawn) belongs 219 to 220 °C.
As for `Cc1ccc(C)c(-c2c3ccccc3nc3ccc(NC(=O)c4ccccc4)cc23)c1`, the melting point lay in the range of 253 to 255 °C.
The result for `CNC(=O)c1cccc(Cl)c1Nc1nc(Nc2ccc3c(c2)CCCC(=O)N3CCOC)ncc1Cl` reads 136 to 157 °C; that for `C[C@@H](SCCc1nccn1C)[C@](O)(Cn1cncn1)c1ccc(F)cc1F` (racemic), 175 to 176 °C.
To `O=c1[nH]c2ccccc2n1CC1CCN(CC(O)COc2ccc(Cl)cc2)C1` (stereo not drawn) belongs 129 °C; to `CN(C)c1ccc2c(c1)Sc1cc(OC(=O)c3ccccc3)ccc1N2C(=O)c1ccccc1`, 194 to 200 °C; to `C[C@H](NC(=O)CCn1cc(C2=C(c3cn(C)c4ccccc34)C(=O)NC2=O)c2ccccc21)C(=O)NCC(=O)N[C@@H](CCCCN)C(N)=O`, 158 to 160 °C.
In turn, `CN(Cc1ccc(NC(=O)C2=Cc3cc(Br)ccc3S(=O)(=O)CC2)cc1)C1CCOCC1` registered a melting point of 232 to 235 °C.
The result for `Cc1cccc(Sc2ccc(C(=O)O)s2)c1` reads 73 to 75 °C; that for `CC1(CN=[N+]=[N-])SC2C(NC(=O)Cc3ccccc3)C(=O)N2C1C(=O)OCC(Cl)(Cl)Cl` (stereo not drawn), 105 to 106 °C; that for `N#CCCNC(=O)c1cccc(-c2ccc3c(c2)N(Cc2cc(Cl)cc(Cl)c2)CC3)c1`, 179 to 180 °C.
To `CN1CC(C(=O)c2c[nH]cc2Cc2ccc(F)cc2)=C(O)C1=O` belongs 265 to 267 °C.
`O=C1c2ccccc2C(=O)N1CCN1CCN(C(c2ccccc2)c2ccccn2)CC1` (stereo not drawn) had a melting point of 114 to 117 °C.
Compound `C[Si](C)(C)c1ccc(-c2ccc(Br)cc2F)c(F)c1F` came in with a melting point of 78 °C.
The result for `CCCc1c(OCCCCCc2ccc3cc(O)c(O)cc3c2)ccc(C(=O)O)c1O` reads 165 to 167 °C; that for `CCc1ccc2ncc([N+](=O)[O-])c(Nc3ccccc3Cl)c2c1`, 134 to 136 °C.
Compound `CCCCNS(=O)(=O)C[C@@H](O)C(O)[C@@H](CC1CCCCC1)NC(=O)[C@@H](N)CC(C)C` (relative stereo) had a melting point of 99 to 109 °C.
As for `c1ccc(C(NC23CC4CC(C2)CC(OCc2ccc(-c5nc6ccccc6o5)cc2)(C4)C3)(c2ccccc2)c2ccccc2)cc1`, the melting point was in the range of 174 to 177 °C.
The result for `CN1CCN(c2nc3sc4c(NCCCn5ccnc5)ncnc4c3c3c2COC(C)(C)C3)CC1` reads 227 °C; that for `C=Cc1c(N)cc(Cl)nc1C(=O)OC`, 53 to 54 °C.
For the compound `CCC(=N)c1c(O)cc(-c2ccccc2)n(C)c1=O`, the melting point is 145 to 147 °C.
Take `O=S1(=O)c2ccccc2N(c2ccccn2)c2ccccc21`: the melting point is 184 to 188 °C.
Regarding `COc1ccc(-c2cnc(C=NN3CC(=O)NC3=O)o2)cc1`, the melting point was 291 to 294 °C.
The result for `COC(=O)C1Cc2c([nH]c3ccccc23)C(c2ccc(O)cc2)N1` (stereo not drawn) reads 233 to 235 °C; that for `CN(C)Cc1cc2cc(C(=O)NN)ccc2o1`, 82 to 92 °C; that for `O=C(NCCO)c1cccc(-c2ccc3ccn(-c4ncc(Cl)cc4Cl)c3n2)c1`, 196 to 197 °C.
The result for `O=C(O)c1ccc(C(F)(F)F)cc1-c1ccc2c(c1)OC[C@H](Cc1ccccc1)[C@H]2O` reads 142 °C; that for `CC1(c2[nH]c3ccccc3c2C2=C(Cl)C(=O)C=C(Cl)C2=O)CC1`, 170 to 171 °C; that for `CN(Cc1ccccc1)C1=N/C(=C\c2c[nH]c3ncc(Cl)cc23)C(=O)N1`, 310 °C.
`O=Cc1ccc(-c2ccccc2)c(F)c1` yielded a melting point of 82 to 83 °C.
For `CC(C)(C)OC(=O)N1CCN(Cc2ccccc2)C(=O)C1`, the melting point was 89 to 90 °C.
In turn, `Cn1c(Cl)cccc1=O` came in with a melting point of 108 °C.
To `O=C(O)CCCCCC[C@H]1CC[C@@H](O)CC1` belongs 75 to 79 °C.
The result for `O=C1CC=C2N1CCN1C(=O)C[C@H]3CCCC[C@]231` (relative stereo) reads 105 to 125 °C.
To `CCc1nc2c(N)nc3cc(/C=C/C(=O)N(C)C)ccc3c2n1CC1CCOCC1` belongs above 260 °C; to `COC(=O)CCC(C)C1CCC2C3CC=C4C(C)(C)C(O)CCC4(C)C3CCC12C` (stereo not drawn), 136 to 138 °C; to `N#Cc1ccccc1C1CNC([N+](=O)[O-])CCN1` (stereo not drawn), 101 °C.
As to `Nc1nc2c([N+](=O)[O-])cc(OC(F)(F)F)cc2s1`, the melting point stood at 260 °C.
As for `CC(=O)Nc1c(C(=O)c2cccc(C)n2)[nH]c2cc(Cl)ccc12`, the melting point was in the range of 195 to 196 °C.
To `CN(C)c1ccc(S(=O)(=O)Nc2cnc3ccc(Cl)cc3n2)cc1` belongs 206 to 207 °C; to `COc1cc(OC)nc(NC(=O)NS(=O)(=O)c2ccccc2C(O)c2cccs2)n1` (stereo not drawn), 152 to 154 °C; to `Oc1cccc(-c2nc(Nc3ccc(Cl)cc3)c3ccccc3n2)n1`, above 350 °C.
To `CC(=O)C(=Cc1cccnc1)C(C)=O` belongs 52 to 57 °C; to `COc1ccccc1CCC(=O)Nc1sc2c(c1C#N)CCN(C(=O)OC(C)(C)C)C2`, 198 °C; to `Cc1c(C)c(N2C(=O)c3ccccc3C2=O)c(C)c2c1OC(C)(C)C2c1ccc(C(C)C)cc1` (stereo not drawn), 180 to 181 °C.
As to `Oc1ccc(C(c2ccc(O)cc2)(c2ccc(I)cc2)C(F)(F)F)cc1`, the melting point lay in the range of 187 to 189 °C.
To `COc1ccc(-c2nc3cccc(C(=O)NC4CC5CCCC(C4)N5C)c3o2)cc1` (stereo not drawn) belongs 160 to 162 °C; to `COC1=C(OC)C(=O)C(CCC(=O)NCC(=O)O)=C(C)C1=O`, 128 to 130 °C; to `CC(C)c1n[nH]c2c(NCc3ccccc3)ncnc12`, 153 to 154 °C.
Compound `CN(C)C=C1CN=Cc2ccccc2C1=O` gave a melting point of 131 to 133 °C.
The result for `Cc1ccc(C)n1CC(=O)N=C(N)N` reads 198 to 200 °C; that for `CN(CC(=O)O)C(=S)c1ccc(Cl)cc1`, 72 to 73 °C; that for `Cn1cc(C(=O)NCCCN)c(Nc2ccc(I)cc2F)cc1=O`, 201 to 206 °C.

In general, melting point refers to the temperature of the solid-liquid transition.
